Data reported in US20210330611A1, “THERAPY FOR NEUROLOGICAL DISEASES/DISORDERS” (priority 2020, published 2021).
Counter-ions that a name gives are not always drawn. Like-named read-outs stand apart in the source and are kept apart here.

Columns and labels:
[1] = test system: fibrin-induced microglia activation; assay: Image-based assay of fibrin-induced microglia activation (HTS and dose response); type: cell-based, rat; conditions: for inhibition at 10 µM: Rattus norvegicus, Microglia, read-out: Fibrin % inhibition
primary rat microglia [2] = test system: primary rat microglia;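 as to Fibrin % cell toxicity: share of dead cells sized under 150 µm2 at 10 µM in fibrin-stimulated microglia HTS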
[3] = test system: LPS-induced microglia activation; assay: Image-based assay of LPS-induced microglia activation (HTS and dose response); type: cell-based, rat; conditions: for inhibition at 10 µM: Rattus norvegicus, Microglia, read-out: LPS % inhibition
[4] = test system: fibrin- and LPS-induced microglia activation; assay: cells; type: cell-based, rat
primary rat microglia [5] = test system: primary rat microglia; remark: listed apart in the source;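 as to Fibrin % cell toxicity: share of dead cells sized under 150 µm2 at 10 µM in fibrin-stimulated microglia HTS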
[6] = primary HTS, 10 μM, fibrin-stimulated primary microglia
[7] = primary HTS, 10 μM, LPS-stimulated primary microglia
[8] = primary microglia HTS, fibrin stimulation, compounds at 10 μM
[9] = primary microglia HTS, LPS stimulation, compounds at 10 μM
[10] = classification by fibrin and LPS inhibition, HTS at 10 μM

Compound	inhibition at 10 µM [1]	Fibrin % cell toxicity (primary rat microglia [2]; rat)	inhibition at 10 µM [3]	Quadrant (FIG. 5b) [4]	LPS % cell toxicity (primary rat microglia [5]; rat)	other results
C[C@H](CCC(=O)O)[C@H]1CC[C@H]2[C@@H]3[C@H](O)C[C@@H]4C[C@H](O)CC[C@]4(C)[C@H]3C[C@H](O)[C@]12C [Cholic Acid]	-31%	0%	-5%	Q4	0%	–
C[N+](C)(C)CCO [Choline]	0%	0%	12%	Q4	0%	–
CC1(C)C[C@@H]1C(=O)N/C(=C\CCCCSC[C@H](N)C(=O)O)C(=O)O [Cilastatin]	-6%	1%	2%	Q4	0%	–
O=C1CCc2cc(OCCCCc3nnnn3C3CCCCC3)ccc2N1 [Cilostazol]	–	1%	–	–	1%	inhibition at 10 µM [1, 6]: 5%; inhibition at 10 µM [3, 7]: 17%; Quadrant (FIG. 5b) ([4]; primary HTS, 10 μM): Q4
CN/C(=N/CCSCc1nc[nH]c1C)NC#N [Cimetidine]	-1%	0%	22%	Q4	1%	–
CC(C)(Oc1ccc(C2CC2(Cl)Cl)cc1)C(=O)O (centres unmarked) [Ciprofibrate]	–	0%	–	–	1%	inhibition at 10 µM [1, 6]: -16%; inhibition at 10 µM [3, 7]: 16%; Quadrant (FIG. 5b) ([4]; primary HTS, 10 μM): Q4
COc1cc(N)c(Cl)cc1C(=O)NC1CCN(CCCOc2ccc(F)cc2)CC1OC (centres unmarked) [Cisapride]	–	0%	–	–	0%	inhibition at 10 µM [1, 6]: -38%; inhibition at 10 µM [3, 7]: 5%; Quadrant (FIG. 5b) ([4]; primary HTS, 10 μM): Q4
C[N+](C)(C)CCOP(=O)(O)OP(=O)([O-])OC[C@H]1O[C@@H](n2ccc(N)nc2=O)[C@H](O)[C@@H]1O [Citicoline]	–	1%	–	–	0%	inhibition at 10 µM [1, 6]: 5%; inhibition at 10 µM [3, 7]: 16%; Quadrant (FIG. 5b) ([4]; primary HTS, 10 μM): Q4
O=C(O)CC(O)(CC(=O)O)C(=O)O [Citric Acid]	-36%	1%	-6%	Q4	0%	–
Nc1nc(Cl)nc2c1ncn2[C@H]1C[C@H](O)[C@@H](CO)O1 [Cladribine]	–	1%	–	–	0%	inhibition at 10 µM [1, 6]: -23%; inhibition at 10 µM [3, 7]: 6%; Quadrant (FIG. 5b) ([4]; primary HTS, 10 μM): Q4
CC[C@H]1OC(=O)[C@H](C)[C@@H](O[C@H]2C[C@@](C)(OC)[C@@H](O)[C@H](C)O2)[C@H](C)[C@@H](O[C@@H]2O[C@H](C)C[C@H](N(C)C)[C@H]2O)[C@](C)(OC)C[C@@H](C)C(=O)[C@H](C)[C@@H](O)[C@]1(C)O [Clarithromycin]	–	1%	–	–	0%	inhibition at 10 µM [1, 6]: -7%; inhibition at 10 µM [3, 7]: 18%; Quadrant (FIG. 5b) ([4]; primary HTS, 10 μM): Q4
Clc1ccc(Cn2c(CN3CCCC3)nc3ccccc32)cc1 [Clemizole Hydrochloride]	–	0%	–	–	1%	inhibition at 10 µM [1, 6]: -38%; inhibition at 10 µM [3, 7]: 21%; Quadrant (FIG. 5b) ([4]; primary HTS, 10 μM): Q4
CC(C)(C)NCC(O)c1cc(Cl)c(N)c(Cl)c1 (centres unmarked) [Clenbuterol]	–	1%	–	–	0%	inhibition at 10 µM [1, 6]: 11%; inhibition at 10 µM [3, 7]: 25%; Quadrant (FIG. 5b) ([4]; primary HTS, 10 μM): Q4
CCN(CC)CCOc1ccc(C(=C(Cl)c2ccccc2)c2ccccc2)cc1 [Clomiphene]	11%	1%	7%	Q4	0%	–
CN(C)CCCN1c2ccccc2CCc2ccc(Cl)cc21 [Clomipramine]	-1%	1%	32%	Q4	1%	–
Clc1cccc(Cl)c1N=C1NCCN1 [Clonidine]	-22%	1%	14%	Q4	0%	–
COC(=O)[C@H](c1ccccc1Cl)N1CCc2sccc2C1 [Clopidogrel]	-24%	1%	7%	Q4	0%	–
Nc1cc(C(Cl)=C(Cl)Cl)c(S(N)(=O)=O)cc1S(N)(=O)=O [Clorsulon]	0%	0%	17%	Q4	0%	–
Clc1ccccc1C(c1ccccc1)(c1ccccc1)n1ccnc1 [Clotrimazole]	-13%	1%	13%	Q4	0%	–
CN1CCN(C2=Nc3cc(Cl)ccc3Nc3ccccc32)CC1 [Clozapine]	3%	0%	9%	Q4	0%	–
COc1cc2c(c(OC)c1OC)-c1ccc(OC)c(=O)cc1[C@@H](NC(C)=O)CC2 [Colchicine, reference compound]	114%	12%	–	Q2	10%	inhibition at 10 µM ([3]; 48 h): 113%; Activity [4]: fib/LPS
CC=CC(=O)N(CC)c1ccccc1C [Crotamiton]	–	–	–	–	–	Fibrin % inhibition [1, 8]: 12%; Fibrin % cell toxicity (primary rat microglia [2]): 0%; LPS % inhibition [3, 9]: 3%; Quadrant (FIG. 5b) [4, 10]: Q4; LPS % cell toxicity (primary rat microglia [5]): 0%
O=S(=O)(O)NC1CCCCC1 [Cyclamic Acid]	4%	0%	13%	Q4	0%	–
CN(C)CCC=C1c2ccccc2C=Cc2ccccc21 [Cyclobenzaprine]	-29%	0%	35%	Q4	1%	–
CN1CCC(=C2c3ccccc3C=Cc3ccccc32)CC1 [Cyproheptadine]	24%	1%	43%	Q4	1%	–
NCCS [Cysteamine]	9%	0%	12%	Q4	0%	–
Nc1ccn([C@@H]2O[C@H](CO)[C@@H](O)[C@@H]2O)c(=O)n1 [Cytarabine]	–	0%	–	–	0%	inhibition at 10 µM [1, 8]: -19%; inhibition at 10 µM [3, 9]: 14%; Quadrant (FIG. 5b) [4, 10]: Q4
O=c1cccc2n1C[C@@H]1CNC[C@H]2C1 [Cytisine]	23%	1%	16%	Q4	1%	–
CC12CCC(CC1=O)C2(C)C [D-camphor]	–	–	–	–	–	Fibrin % inhibition [1, 8]: −32%; Fibrin % cell toxicity (primary rat microglia [2]): 0%; LPS % inhibition [3, 9]: 6%; Quadrant (FIG. 5b) [4, 10]: Q4; LPS % cell toxicity (primary rat microglia [5]): 0%
